In patent publication US20250144187A1, “COMBINATION OF HYDROLASES AND ANTI-MICROORGANISM DRUGS AND USES THEREOF” (CENTRE FOR EYE AND VISION RESEARCH LIMITED, priority 2023, published 2025):

Columns and labels:
[1] = tested on: methicillin-resistant Staphylococcus aureus USA 300 (MRSA, ATCC-BAA1556); experiment: Check board broth micro-dilution assay, auranofin with human lysozyme; assay type: cell-based; details: auranofin in combination with lysozyme
Experimental: Then, about 5.0×10^5 colony-forming units (CFUs) of methicillin-resistant Staphylococcus aures (MRSA, USA300 strain) in log phase were added into each well for overnight culture. Bacterial growth inhibition was monitored by optical density at 600 nm (OD600) and colony units in serial dilution in LB agar plate. Well without any drug served as growth control, and well without bacteria served as background control. The inhibition ratio was calculated as […]. CFUs were counted by 10-fold serial dilution in phosphate buffered saline (PBS) and 10 μl of dilutions were spotted in LB agar plate. […] Briefly, FICI=MICAB/MICA+MICBA/MICB=FICA+FICB. […] Thus, there would be a series of FICI values. In most of cases, the lowest one among these values was listed to reflect the best achieving degree of combination therapy. In terms of the lowest FICI, FICI≤0.5, 0.5<FICI<1 or FICI≥1, would indicate whether the combination has synergy, part synergy or non-synergy effects, respectively. Besides, to better highlight the inhibition degree of bacterial growth in combination therapy or identify whether combination therapy has synergy effect, results might be shown by heat-maps or line-charts containing different FICI values, although they were performed by using same 2-fold dilution method. All assays were performed in triplicate.

[2] = tested on: MRSA; experiment: Time-killing curves, auranofin/lysozyme; assay type: cell-based, Staphylococcus aureus
Experimental: 2) Time-killing curves According to standard method [K. R. V. Thappeta et al., (2020) ACS Infect Dis 6: 1228-1237], over-night cultured MRSA was diluted and aliquoted into new sterile tubes at 1:1000 ratio. Then, the bacterial suspension was co-cultured with […] auranofin, 0.5 mg/ml lysozyme or their combination at 37° C. with shaking at 200 rpm. Similar bacterial suspension without any additions served as control group. Then, 20 μl of each culture was extracted at time intervals of […] and 22 hours to determine CFUs by spotting 10 μl of 10-fold dilution on the LB agar plates and incubating at 37° C. for 24 hours prior to enumeration. All assays were performed in triplicate.

[3] = tested on: MRSA biofilm; experiment: Biofilm crystal violet assay, auranofin/lysozyme; assay type: cell-based, Staphylococcus aureus
Experimental: 3) Biofilm assays According to described previously method [K. R. V. Thappeta et al., (2020) ACS infect Dis 6: 1228-1237], biofilm inhibition was assessed by using an adherence assay on 96-well tissue culture plates. Briefly, bacterial suspensions (1×10^6 (CFU/ml) were exposed to 0.34 μg/ml auranofin in LB medium in the absence and presence of 0.5 mg/ml lysozyme. LB medium with or without bacteria served as […] control group, respectively. After overnight incubation at 37° C. bacterial suspensions were removed, and the wells were gently washed twice with sterile PBS to remove exclusively non-adherent bacteria. The adherent biofilms were fixed by using 95% methanol at 60° C. for 15 minutes. Then, biofilms were stained with 1% crystal violet (100 μl/well) at 37° C. for 15 minutes, followed by gently washing with PBS to remove redundant crystal violet. Finally, the dye was solubilized with 150 μl of 95% ethanol per well at 37° C. for 30 minutes. The optical density of solution in each well was measured at 590 nm using a micro-plate reader. Herein, strong biofilm, weak biofilm and no biofilm wen defined as “ODsample≥2 ODnegative control”, “ODnegative control<ODsample<2 ODnegative control” and “ODsample≤ODnegative control”, respectively. All assays were performed in triplicate.

[4] = tested on: MRSA; experiment: Resistance development study (serial passages), auranofin/lysozyme; assay type: cell-based, Staphylococcus aureus; details: combination with lysozyme compared with auranofin alone
Experimental: 4) Resistance development study. As described before [Y, Lau et al., (2020) Adv Sci 7:1902227]. MRSA at exponential phase was diluted (1:1000) into fresh LB medium containing different concentrations of auranofin, lysozyme or their combination. After 1 passage (24 hours) at 37° C., MIC of culture was determined by standard two-fold serial dilutions. Next, this culture with higher MIC was further diluted into similar LB medium but with higher concentrations of compounds for next passages. The process was repeated for 18 days. By analyzing initial MICs of auranofin or lysozyme, fold-changes in MI s of these compounds were calculated. Assays were performed in triplicate.

[5] = tested on: MRSA; experiment: Mutation frequency and prevention concentration analysis, auranofin/lysozyme; assay type: cell-based, Staphylococcus aureus
From the text: 5) Mutation frequency and prevention concentration analysis.

[6] = tested on: MRSA; experiment: ATP level, auranofin/lysozyme; assay type: cell-based, Staphylococcus aureus; details: 0.5 mg/ml lysozyme and 0.34 μg/ml auranofin
Experimental: 8) ATP level. […] Those without any treatment served as control group. Alter 1 hour incubation at 37° C. all bacteria were collected and washed by cold PBS for 3 times. […] Then, 20 μl of each supernatant were added white 96-well plate pre-reactivated by 100 μl of ATP test solution (Beyotime) to perform luminometer measurement.

[7] = tested on: ARPE-19 cells; experiment: Toxicity analysis of auranofin by CCK-8 kit; assay type: cell-based, human; details: uninfected cells
From the text: FIG. 10: Toxicity analysis of auranofin on ARPE-19 cells by using CCK-8 kit.

[8] = tested on: MRSA in ARPE-19 cells; experiment: Cell-based infection model, auranofin/lysozyme; details: ≥0.34 μg/ml auranofin combined with 0.5 mg/ml lysozyme
[9] = tested on: MRSA; experiment: TMT proteomics analysis and PRM validation, auranofin/lysozyme; details: auranofin + lysozyme combination vs lysozyme alone, 5 hours

CC(=O)OC[C@H]1O[C@@H]([S-])[C@H](OC(C)=O)[C@@H](OC(C)=O)[C@@H]1OC(C)=O.CCP(CC)CC.[Au+] [auranofin, Auranofin]
fractional inhibitory concentration index (FICI) [1]: 0.266
bacterial load ([2]; 0.34 μg/ml auranofin + 0.5 mg/ml lysozyme, reduced from the level of 10^10): 10^5 CFU/ml
inhibition effect on growth of MRSA at exponential phase ([2]; drug alone: 0.34 μg/ml auranofin or 0.5 mg/ml lysozyme): few inhibitions effect
biofilm-based absorbance at 590 nm, pre-biofilm stage ([3]; 0.34 μg/ml auranofin + 0.5 mg/ml lysozyme): biofilm had been absolutely removed
biofilm-based absorbance at 590 nm, post-biofilm stage ([3]; auranofin + lysozyme combination after biofilm had appeared): the decrease was not observed after biofilm had appeared
development of auranofin resistance [4]: did suppress the development of auranofin resistance
gene mutation frequency ([5]; 0.34 μg/ml auranofin + 2 mg/ml lysozyme): ≤ 1×10^−9
gene mutation frequency ([5]; 0.34 μg/ml auranofin without lysozyme): ≥ 9×10^−6
ATP level [6]: significantly reduced
IC50 of auranofin on ARPE-19 cells [7]: 2.21±0.34 μg/ml
drop of bacterial load in infected ARPE-19 cells [8]: 10^2 fold
bacterial load in infected ARPE-19 cells ([8]; MOI 5): 10^5 CFU/ml
CopZ over-expression [9]: 21 fold
N-acetylmuramoyl-L-alanine amidase domain (Q2G222) overexpression [9]: ~1.84 fold
protein level of walR (Q7A8E1) [9]: ~0.68 fold
